From PubChem BioAssay (NCI)
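48-hour exposure; five concentrations; linearly interpolated endpoints. Abbreviation: GI50, concentration required for 50% inhibition of growth. TGI is the concentration that stops growth completely.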

Legend:
Assay in all cases: NCI-60 cell line screen, 48 h
OVCAR-4 ovarian = system: OVCAR-4 ovarian
SF-268 CNS = system: SF-268 CNS
HS 578T breast = system: HS 578T breast
KM12 colon = system: KM12 colon
NCI-H226 lung = system: NCI-H226 lung
U251 CNS = system: U251 CNS
MALME-3M melanoma = system: MALME-3M melanoma
NCI/ADR-RES ovarian = system: NCI/ADR-RES ovarian
HCC-2998 colon = system: HCC-2998 colon
UO-31 renal = system: UO-31 renal
RPMI-8226 leukemia = system: RPMI-8226 leukemia
MDA-MB-468 breast = system: MDA-MB-468 breast
MDA-MB-435 = system: MDA-MB-435
EKVX NSCLC = system: EKVX NSCLC
M14 melanoma = system: M14 melanoma
OVCAR-5 ovarian = system: OVCAR-5 ovarian
MDA-MB-231 breast = system: MDA-MB-231 breast
UACC-62 melanoma = system: UACC-62 melanoma
MCF7 breast = system: MCF7 breast
SK-MEL-28 melanoma = system: SK-MEL-28 melanoma
NCI-H23 lung = system: NCI-H23 lung
SF-539 CNS = system: SF-539 CNS
LOX IMVI melanoma = system: LOX IMVI melanoma
CCRF-CEM leukemia = system: CCRF-CEM leukemia
DU-145 prostate = system: DU-145 prostate
A498 renal = system: A498 renal
K-562 leukemia = system: K-562 leukemia
NCI-H460 lung = system: NCI-H460 lung
SNB-19 CNS = system: SNB-19 CNS
786-0 renal = system: 786-0 renal
MOLT-4 leukemia = system: MOLT-4 leukemia
HT29 colon = system: HT29 colon
SK-MEL-2 melanoma = system: SK-MEL-2 melanoma
CAKI-1 renal = system: CAKI-1 renal
SNB-75 CNS = system: SNB-75 CNS
HL-60(TB) leukemia = system: HL-60(TB) leukemia
SK-MEL-5 melanoma = system: SK-MEL-5 melanoma
HOP-62 NSCLC = system: HOP-62 NSCLC
A549 NSCLC = system: A549 NSCLC
SK-OV-3 ovarian = system: SK-OV-3 ovarian
BT-549 breast = system: BT-549 breast
HOP-92 NSCLC = system: HOP-92 NSCLC
IGROV1 ovarian = system: IGROV1 ovarian
SW-620 colon = system: SW-620 colon
PC-3 prostate = system: PC-3 prostate
SN12C renal = system: SN12C renal
OVCAR-8 ovarian = system: OVCAR-8 ovarian
OVCAR-3 ovarian = system: OVCAR-3 ovarian
NCI-H522 lung = system: NCI-H522 lung
HCT-116 colon = system: HCT-116 colon
COLO 205 colon = system: COLO 205 colon
TK-10 renal = system: TK-10 renal
UACC-257 melanoma = system: UACC-257 melanoma
SF-295 CNS = system: SF-295 CNS
HCT-15 colon = system: HCT-15 colon
ACHN renal = system: ACHN renal
SR leukemia = system: SR leukemia

Cn1cc(-c2nc(N)nnc2-c2c[nH]c3ccccc23)c2cc(Br)cnc21
GI50 (OVCAR-4 ovarian): 2700 nM
TGI (OVCAR-4 ovarian): 36800 nM
GI50 (SF-268 CNS): 340 nM
TGI (SF-268 CNS): 25500 nM
GI50 (HS 578T breast): 31.9 nM
TGI (HS 578T breast): 33700 nM
GI50 (KM12 colon): 50.6 nM
TGI (KM12 colon): 13900 nM
GI50 (NCI-H226 lung): 50.9 nM
TGI (NCI-H226 lung): 2700 nM
GI50 (U251 CNS): 40.2 nM
TGI (U251 CNS): 6710 nM
GI50 (MALME-3M melanoma): 46.6 nM
TGI (MALME-3M melanoma): 18500 nM
GI50 (NCI/ADR-RES ovarian): 92.4 nM
TGI (NCI/ADR-RES ovarian): 776 nM
GI50 (HCC-2998 colon): 84.1 nM
TGI (HCC-2998 colon): 3470 nM
GI50 (UO-31 renal): 71.1 nM
TGI (UO-31 renal): 15200 nM
GI50 (RPMI-8226 leukemia): 70.8 nM
TGI (RPMI-8226 leukemia): > 45500 nM
GI50 (MDA-MB-468 breast): 20 nM
TGI (MDA-MB-468 breast): 51.8 nM
GI50 (MDA-MB-435): 16.7 nM
TGI (MDA-MB-435): 52.5 nM
GI50 (EKVX NSCLC): 94.9 nM
TGI (EKVX NSCLC): 20700 nM
GI50 (M14 melanoma): 52.6 nM
TGI (M14 melanoma): 2060 nM
GI50 (OVCAR-5 ovarian): 72.9 nM
TGI (OVCAR-5 ovarian): 15500 nM
GI50 (MDA-MB-231 breast): 69.7 nM
TGI (MDA-MB-231 breast): 11700 nM
GI50 (UACC-62 melanoma): 29.4 nM
TGI (UACC-62 melanoma): 7680 nM
GI50 (MCF7 breast): 27.5 nM
TGI (MCF7 breast): 10600 nM
GI50 (SK-MEL-28 melanoma): 364 nM
TGI (SK-MEL-28 melanoma): 19200 nM
GI50 (NCI-H23 lung): 73.8 nM
TGI (NCI-H23 lung): 10400 nM
GI50 (SF-539 CNS): 32.3 nM
TGI (SF-539 CNS): 175 nM
GI50 (LOX IMVI melanoma): 43.5 nM
TGI (LOX IMVI melanoma): 15800 nM
GI50 (CCRF-CEM leukemia): 33.4 nM
TGI (CCRF-CEM leukemia): > 35500 nM
GI50 (DU-145 prostate): 87.7 nM
TGI (DU-145 prostate): 22400 nM
GI50 (A498 renal): 15600 nM
TGI (A498 renal): 29700 nM
GI50 (K-562 leukemia): 35.7 nM
TGI (K-562 leukemia): > 100000 nM
GI50 (NCI-H460 lung): 46.2 nM
TGI (NCI-H460 lung): 1350 nM
GI50 (SNB-19 CNS): 63.2 nM
TGI (SNB-19 CNS): 10400 nM
GI50 (786-0 renal): 53.7 nM
TGI (786-0 renal): 15600 nM
GI50 (MOLT-4 leukemia): 50.5 nM
TGI (MOLT-4 leukemia): 19200 nM
GI50 (HT29 colon): 34.7 nM
TGI (HT29 colon): 1230 nM
GI50 (SK-MEL-2 melanoma): 40.9 nM
TGI (SK-MEL-2 melanoma): 14300 nM
GI50 (CAKI-1 renal): 53.5 nM
TGI (CAKI-1 renal): 17100 nM
GI50 (SNB-75 CNS): 30.2 nM
TGI (SNB-75 CNS): 18300 nM
GI50 (HL-60(TB) leukemia): 26.5 nM
TGI (HL-60(TB) leukemia): 100 nM
GI50 (SK-MEL-5 melanoma): 30.1 nM
TGI (SK-MEL-5 melanoma): 1190 nM
GI50 (HOP-62 NSCLC): 56.4 nM
TGI (HOP-62 NSCLC): 21200 nM
GI50 (A549 NSCLC): 62.5 nM
TGI (A549 NSCLC): 19300 nM
GI50 (SK-OV-3 ovarian): 48.7 nM
TGI (SK-OV-3 ovarian): 21200 nM
GI50 (BT-549 breast): 29 nM
TGI (BT-549 breast): 5670 nM
GI50 (HOP-92 NSCLC): 3890 nM
TGI (HOP-92 NSCLC): 25500 nM
GI50 (IGROV1 ovarian): 72.1 nM
TGI (IGROV1 ovarian): 15200 nM
GI50 (SW-620 colon): 37.6 nM
TGI (SW-620 colon): 13200 nM
GI50 (PC-3 prostate): 56 nM
TGI (PC-3 prostate): 47900 nM
GI50 (SN12C renal): 58.9 nM
TGI (SN12C renal): 14300 nM
GI50 (OVCAR-8 ovarian): 63.4 nM
TGI (OVCAR-8 ovarian): 4700 nM
GI50 (OVCAR-3 ovarian): 39 nM
TGI (OVCAR-3 ovarian): 692 nM
GI50 (NCI-H522 lung): 12.5 nM
TGI (NCI-H522 lung): 79.7 nM
GI50 (HCT-116 colon): 44.1 nM
TGI (HCT-116 colon): 6510 nM
GI50 (COLO 205 colon): 41.4 nM
TGI (COLO 205 colon): 280 nM
GI50 (TK-10 renal): 5950 nM
TGI (TK-10 renal): 34200 nM
GI50 (UACC-257 melanoma): 42.1 nM
TGI (UACC-257 melanoma): 21800 nM
GI50 (SF-295 CNS): 29.4 nM
TGI (SF-295 CNS): 1190 nM
GI50 (HCT-15 colon): 37.6 nM
TGI (HCT-15 colon): 10700 nM
GI50 (ACHN renal): 74.3 nM
TGI (ACHN renal): 16900 nM
GI50 (SR leukemia): 30.9 nM
TGI (SR leukemia): > 100000 nM
